Like-named read-outs stand apart in the source and are kept apart here.
How the values were obtained:
human PI3Kα protein = molecular target: T1, human PI3Kα protein (Homo sapiens, UniProt P42336); assay: PI3Kα enzyme assay (ADP-Glo kinase assay); assay type: biochemical; conditions: 3 nM PI3Kα, 50 μM PIP2, 100 μM ATP
T1 construct: purchased Carna Biosciences, Inc; host or cells: Baculovirus expression system
Procedure: Evaluation of the PI3Kα inhibitory activity of the compound of the present invention was carried out according to the method as described below.
For the PI3Kα enzyme assay, biotinylated product of a human PI3Kα protein produced using a Baculovirus expression system (Carna Biosciences, Inc.) was used. Further, for the detection of the enzyme activity, an ADP-Glo kinase assay (PROMEGA Corporation) was used.
10 μL of a reaction solution (3 nM PI3Kα, 40 mM Tris-HCl, 20 mM MgCl2, 0.1% BSA, pH 7.5) including the human PI3Kα protein and a test compound at a predetermined concentration was incubated at room temperature for 15 minutes. Thereafter, 5 μL of a mixed solution of L-α-Phosphatidylinositol 4,5-diphosphate (PIP2) (SIGMA-ALDLICH) which was a substrate and ATP(SIGMA-ALDLICH) was added thereto to a final concentration of 50 μM and 100 μM, respectively, and the reaction solution was further incubated at 25° C. for 60 minutes to carry out an enzyme reaction.
After the reaction, 15 μL of an ADP-Glo reagent (PROMEGA Corporation) was added and the resulting liquid was incubated at room temperature for 60 minutes, whereby the enzyme reaction was stopped. Thereafter, after further adding 30 μL of a Kinase Detection Reagent (PROMEGA Corporation) and standing the resulting solution at room temperature for 40 minutes, ADP produced by the enzyme reaction was quantified by luminescence intensity.
For the measurement of luminescence intensity, EnVision (PerkinElmer, Inc.) was used.
(§1) The inhibitory activity of the compounds was evaluated using an IC50 (50% inhibitory concentration). The IC50 was calculated using XLfit (IDBS).

[1] = molecular target: T2, glutathione S-transferase (GST)-fusion human ERK2 protein (Homo sapiens, UniProt P28482); assay: ERK2 enzyme assay (LabChip mobility shift); assay type: biochemical; conditions: 2 nM ERK2, 4.25 μM FL-Peptide 8, 43 μM ATP
T2 construct: purchased Carna Biosciences, Inc; host or cells: E. coli expression system
Procedure: Evaluation of the ERK2 inhibitory activity of the compound of the present invention was carried out according to the method as described below.
For the ERK2 enzyme assay, a glutathione S-transferase (GST)-fusion human ERK2 protein (Carna Biosciences, Inc.) produced using an E. coli expression system was used.
12 μL of the reaction solution (2 nM ERK2, 100 mM Hepes, 10 mM MgCl2, 1.5 mM DTT, 0.003% Brij35, pH 7.5) including the ERK2 protein and a test compound at a predetermined concentration was incubatedat room temperature for 15 minutes. Thereafter, 3 μL of a mixed solution of FL-Peptide 8 (5-FAM-IPTSPITTTYFFFKKK-COOH) (Caliper Lifescience) which was a substrate and ATP(SIGMA-ALDLICH) were added thereto to a final concentration of 4.25 μM and 43 μM, respectively. The reaction solution was further incubated at 25° C. for 120 minutes to carry out an enzyme reaction.
The enzyme reaction was stopped by adding 27 μL of a reaction-stopping solution (100 mM HEPES, 11.2 mM EDTA, 5.6% Brij35, pH 7.5) including a 0.5% Coating reagent 8 (PerkinElmer, Inc.) after the reaction. Thereafter, non-phosphorylated peptides and phosphorylated peptides were separated using LabChip Ez Reader (Caliper LifeScience, Inc.) to quantify the proportion of phosphorylated peptides.
as §1

[2] = IC50 class, read-out: PI3Kα Inhibitory Activity
[3] = IC50 class, read-out: ERK2 Inhibitory Activity

T2 sequence (P28482 whole entry, the tested form may be a part): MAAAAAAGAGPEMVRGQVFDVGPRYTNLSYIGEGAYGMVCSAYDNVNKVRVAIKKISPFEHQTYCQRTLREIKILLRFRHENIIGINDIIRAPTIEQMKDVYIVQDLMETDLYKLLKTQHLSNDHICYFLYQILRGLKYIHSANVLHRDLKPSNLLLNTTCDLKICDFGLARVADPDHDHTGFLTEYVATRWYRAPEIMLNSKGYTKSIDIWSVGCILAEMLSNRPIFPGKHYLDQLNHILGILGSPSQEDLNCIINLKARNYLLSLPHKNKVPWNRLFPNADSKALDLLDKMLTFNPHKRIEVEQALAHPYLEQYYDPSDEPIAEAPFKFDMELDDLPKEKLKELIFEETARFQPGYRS
T1 sequence (P42336 whole entry): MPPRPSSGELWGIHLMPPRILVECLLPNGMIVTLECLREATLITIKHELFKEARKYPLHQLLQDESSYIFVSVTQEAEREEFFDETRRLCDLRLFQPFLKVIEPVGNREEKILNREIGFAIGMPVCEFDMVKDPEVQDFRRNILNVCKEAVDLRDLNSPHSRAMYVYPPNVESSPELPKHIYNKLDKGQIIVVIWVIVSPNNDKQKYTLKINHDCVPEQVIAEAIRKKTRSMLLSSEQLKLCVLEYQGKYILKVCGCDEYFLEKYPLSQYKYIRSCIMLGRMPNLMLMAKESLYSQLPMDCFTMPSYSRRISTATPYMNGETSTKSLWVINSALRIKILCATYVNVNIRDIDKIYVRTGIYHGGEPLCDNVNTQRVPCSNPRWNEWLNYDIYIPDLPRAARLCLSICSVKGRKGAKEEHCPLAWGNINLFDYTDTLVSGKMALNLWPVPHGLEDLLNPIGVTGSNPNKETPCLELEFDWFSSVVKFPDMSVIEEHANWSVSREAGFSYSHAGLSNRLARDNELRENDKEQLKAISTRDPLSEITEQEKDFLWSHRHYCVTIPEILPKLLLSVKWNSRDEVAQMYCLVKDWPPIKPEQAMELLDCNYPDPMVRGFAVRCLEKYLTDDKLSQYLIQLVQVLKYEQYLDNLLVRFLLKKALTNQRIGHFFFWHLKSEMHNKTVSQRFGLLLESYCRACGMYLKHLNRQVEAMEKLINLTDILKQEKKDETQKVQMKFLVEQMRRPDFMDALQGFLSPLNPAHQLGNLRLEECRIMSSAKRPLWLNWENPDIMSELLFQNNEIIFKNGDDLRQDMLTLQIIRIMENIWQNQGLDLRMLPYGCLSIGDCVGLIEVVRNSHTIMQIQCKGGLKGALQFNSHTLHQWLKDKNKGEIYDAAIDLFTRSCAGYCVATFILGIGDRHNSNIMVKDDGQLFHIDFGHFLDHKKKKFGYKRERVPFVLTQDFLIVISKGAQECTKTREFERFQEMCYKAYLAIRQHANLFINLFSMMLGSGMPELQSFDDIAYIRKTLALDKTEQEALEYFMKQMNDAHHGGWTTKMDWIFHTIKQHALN
T1 sequence (P27986 whole entry partner): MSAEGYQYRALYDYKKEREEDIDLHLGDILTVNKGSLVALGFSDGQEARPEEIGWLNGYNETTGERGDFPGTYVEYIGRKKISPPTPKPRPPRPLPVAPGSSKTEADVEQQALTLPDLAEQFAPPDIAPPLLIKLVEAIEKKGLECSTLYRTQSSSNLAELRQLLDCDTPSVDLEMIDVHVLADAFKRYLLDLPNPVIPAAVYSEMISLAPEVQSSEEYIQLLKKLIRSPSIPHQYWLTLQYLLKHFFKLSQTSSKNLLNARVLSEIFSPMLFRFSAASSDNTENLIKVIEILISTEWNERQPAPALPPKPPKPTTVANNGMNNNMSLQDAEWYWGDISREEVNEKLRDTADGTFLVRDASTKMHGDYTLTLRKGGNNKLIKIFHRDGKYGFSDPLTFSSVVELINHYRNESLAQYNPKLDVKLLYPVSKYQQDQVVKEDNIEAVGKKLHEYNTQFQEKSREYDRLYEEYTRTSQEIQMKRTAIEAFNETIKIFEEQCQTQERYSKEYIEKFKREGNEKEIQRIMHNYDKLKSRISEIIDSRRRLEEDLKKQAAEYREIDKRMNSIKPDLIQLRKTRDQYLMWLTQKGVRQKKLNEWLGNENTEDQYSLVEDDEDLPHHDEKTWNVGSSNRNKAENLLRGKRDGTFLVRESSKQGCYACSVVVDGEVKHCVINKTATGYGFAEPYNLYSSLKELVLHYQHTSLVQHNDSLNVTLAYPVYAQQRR

| Compound | IC50 (human PI3Kα protein; [2]) [nM] | IC50 [1, 3] [nM] | IC50 (human PI3Kα protein; read-out: PI3Kα, IC50) [nM] | IC50 ([1]; read-out: ERK2, IC50) [nM] |
| --- | --- | --- | --- | --- |
| COCCOc1cc(-c2cnc3ccc(NC(=O)NC4CCCC4)nc3c2)ccc1O [Compound 0021] | 100 to 1000 | < 100 |  |  |
| O=C(Nc1ccc2ncccc2n1)NC1CCCC1 [Compound 0116] | 100 to 1000 | 1000 to 10000 |  |  |
| CN(C)CCn1cc(-c2cnc3ccc(NC(=S)N[C@@H]4C[C@H]5CC[C@@H]4C5)nc3c2)cn1 [Compound 0213] | 100 to 1000 | < 100 |  |  |
| O=C(NCC1CCOCC1)Nc1ccc2ncc(-c3cn[nH]c3)cc2n1 [Compound 0191] | 100 to 1000 | < 100 |  |  |
| CN(CCCNC(=O)Nc1ccc2ncc(-c3cn[nH]c3)cc2n1)c1ccccc1 [Compound 0105] | 100 to 1000 | < 100 |  |  |
| O=C(Nc1ccc2ncc(N3CCN(c4ccccc4)CC3)cc2n1)NC1CCCC1 [Compound 0153] | 100 to 1000 | > 10000 |  |  |
| O=C(NCC1CCCOC1)Nc1ccc2ncc(-c3cn[nH]c3)cc2n1 (stereo not drawn) [Compound 0190] | 100 to 1000 | < 100 |  |  |
| O=C(NCCn1cnc2ccccc21)Nc1ccc2ncc(-c3cn[nH]c3)cc2n1 [Compound 0111] | 1000 to 10000 | 100 to 1000 |  |  |
| O=C(NCCc1c[nH]c2ccccc12)Nc1ccc2ncc(-c3cn[nH]c3)cc2n1 [Compound 0112] | 100 to 1000 | < 100 |  |  |
| CC(C)OCCNC(=O)Nc1ccc2ncc(-c3cn[nH]c3)cc2n1 [Compound 0099] | 100 to 1000 | < 100 |  |  |
| Cc1noc(C)c1-c1cnc2ccc(NC(=O)NC3CCCC3)nc2c1 [Compound 0050] | 100 to 1000 | 100 to 1000 |  |  |
| O=C(Nc1ccc2ncc(-c3cn[nH]c3)cc2n1)NC1CCOC1 (stereo not drawn) [Compound 0075] | 100 to 1000 | < 100 |  |  |
| CCNC(=O)Nc1ccc2ncc(-c3cn[nH]c3)cc2n1 [Compound 0054] | 100 to 1000 | < 100 |  |  |
| CCN(CC)CCNC(=O)Nc1ccc2ncc(-c3cn[nH]c3)cc2n1 [Compound 0109] | > 10000 | 1000 to 10000 |  |  |
| O=C(Nc1ccc2ncc(-c3ccc(CO)cc3)cc2n1)NC1CCCC1 [Compound 0042] | 100 to 1000 | < 100 |  |  |
| O=C(NCCCCCc1ccccc1)Nc1ccc2ncc(-c3cn[nH]c3)cc2n1 [Compound 0096] | 100 to 1000 | < 100 |  |  |
| O=C(NCCO)Nc1ccc2ncc(-c3cn[nH]c3)cc2n1 [Compound 0097] | 1000 to 10000 | 100 to 1000 |  |  |
| CN(C)CCNC(=O)C1CCN(c2cnc3ccc(NC(=O)NC4CCCC4)nc3c2)CC1 [Compound 0150] | 100 to 1000 | 1000 to 10000 |  |  |
| N#Cc1cnc2ccc(NC(=O)NC3CCCC3)nc2c1 [Compound 0129] | 1000 to 10000 | 1000 to 10000 |  |  |
| C[C@H](C[C@H](C)Oc1ccccc1)NC(=O)Nc1ccc2ncc(-c3cn[nH]c3)cc2n1 [Compound 0170] | 100 to 1000 | < 100 |  |  |
| CC(C)(C)NC(=O)Nc1ccc2ncc(-c3cnn(CCCN4CCOCC4)c3)cc2n1 [Compound 0185] | 1000 to 10000 | 100 to 1000 |  |  |
| CCCNC(=O)Nc1ccc2ncc(-c3cn[nH]c3)cc2n1 [Compound 0055] | 100 to 1000 | < 100 |  |  |

More lines, now with the values ahead:

| IC50 (human PI3Kα protein; [2]) [nM] | IC50 [1, 3] [nM] | IC50 (human PI3Kα protein; read-out: PI3Kα, IC50) [nM] | IC50 ([1]; read-out: ERK2, IC50) [nM] | Compound |
| --- | --- | --- | --- | --- |
| < 100 | < 100 |  |  | O=C(Nc1ccc2ncc(-c3cn[nH]c3)cc2n1)NC1CCC1 [Compound 0084] |
| < 100 | 100 to 1000 |  |  | O=C(Nc1ccc2ncc(-c3ccnc(O)c3)cc2n1)NC1CCCC1 [Compound 0023] |
| < 100 | < 100 |  |  | O=C(NCCCCc1ccccc1F)Nc1ccc2ncc(-c3cn[nH]c3)cc2n1 [Compound 0171] |
| < 100 | < 100 |  |  | O=C(NCC1CCCC1)Nc1ccc2ncc(-c3cn[nH]c3)cc2n1 [Compound 0081] |
| < 100 | > 10000 |  |  | COc1ccc(Nc2cnc3ccc(NC(=O)NC4CCCC4)nc3c2)cc1OC [Compound 0030] |
| < 100 | 100 to 1000 |  |  | CC(C)(C)OC(=O)N1CC[C@H](NC(=O)Nc2ccc3ncc(-c4cn[nH]c4)cc3n2)C1 [Compound 0071] |
| < 100 | < 100 |  |  | S=C(Nc1ccc2ncc(-c3cnn(CCCN4CCNCC4)c3)cc2n1)NC1CCCC1 [Compound 0220] |
| < 100 | < 100 |  |  | CC(C)(C)NC(=O)Nc1ccc2ncc(-c3cn[nH]c3)cc2n1 [Compound 0059] |
| < 100 | < 100 |  |  | O=C(Nc1ccc2ncc(C3=CCOCC3)cc2n1)NC1CCCC1 [Compound 0205] |
| < 100 | < 100 |  |  | CCCC(C)(C)NC(=O)Nc1ccc2ncc(-c3cn[nH]c3)cc2n1 [Compound 0184] |
| < 100 | < 100 |  |  | O=C(Nc1ccc2ncc(-c3cn[nH]n3)cc2n1)NC1CCCC1 [Compound 0156] |
| < 100 | < 100 | 6 | 35 | O=C(Nc1ccc2ncc(-c3cnn(CCN4CCNCC4)c3)cc2n1)NC1CCCC1 [Compound 0051] |
| < 100 | 100 to 1000 |  |  | O=C(Nc1ccc2ncc(Nc3cc[nH]n3)cc2n1)NC1CCCC1 [Compound 0126] |
| < 100 | 100 to 1000 |  |  | O=C(Nc1ccc2ncc(Nc3cnccn3)cc2n1)NC1CCCC1 [Compound 0140] |
| < 100 | < 100 |  |  | O=C(Nc1ccc2ncc(-c3cnn(CCN4CCOCC4)c3)cc2n1)NC1C[C@H]2CC[C@@H]1C2 (stereo partly drawn) [Compound 0114] |
| < 100 | < 100 |  |  | COCCn1cc(-c2cnc3ccc(NC(=O)NC4CCCC4)nc3c2)cn1 [Compound 0032] |

| IC50 (human PI3Kα protein; [2]) [nM] | IC50 [1, 3] [nM] | IC50 (human PI3Kα protein; read-out: PI3Kα, IC50) [nM] | IC50 ([1]; read-out: ERK2, IC50) [nM] | Compound |
| --- | --- | --- | --- | --- |
| < 100 | < 100 |  |  | O=C(Nc1ccc2ncc(-c3cnn(CCCN4CCCC4)c3)cc2n1)NC1CCCC1 [Compound 0246] |
| < 100 | < 100 |  |  | Cn1cc(-c2cnc3ccc(NC(=O)NC4CCCC4)nc3c2)cn1 [Compound 0003] |
| < 100 | < 100 |  |  | CN(CCO)CCn1cc(-c2cnc3ccc(NC(=O)NC4CCCC4)nc3c2)cn1 [Compound 0045] |
| < 100 | < 100 |  |  | O=C(Nc1ccc2ncc(-c3c[nH]nc3CO)cc2n1)NC1CCCC1 [Compound 0219] |
| < 100 | < 100 |  |  | O=C(NCC1C[C@@H]2CC[C@H]1C2)Nc1ccc2ncc(-c3cn[nH]c3)cc2n1 (stereo partly drawn) [Compound 0110] |
| < 100 | < 100 |  |  | COc1cc(-c2cnc3ccc(NC(=O)NC4CCCC4)nc3c2)ccc1O [Compound 0001] |
| < 100 | < 100 |  |  | CS(=O)(=O)N1CCN(c2cnc3ccc(NC(=O)NC4CCCC4)nc3c2)CC1 [Compound 0151] |
| < 100 | < 100 |  |  | O=C(NCCCCc1ccccc1)Nc1ccc2ncc(-c3cnn(CCCN4CCOCC4)c3)cc2n1 [Compound 0203] |
| < 100 | 1000 to 10000 |  |  | Cn1cc(-c2cc3nc(NC(=O)NC4CCCC4)ccc3nc2N)cn1 [Compound 0227] |
| < 100 | < 100 |  |  | CN(C)CCOc1cc(-c2cnc3ccc(NC(=O)NC4CCCC4)nc3c2)ccc1O [Compound 0016] |
| < 100 | < 100 |  |  | O=C1CN(CCn2cc(-c3cnc4ccc(NC(=O)NC5CCCC5)nc4c3)cn2)CCN1 [Compound 0052] |
| < 100 | < 100 |  |  | O=C(Nc1ccc2ncc(N3CC(O)C3)cc2n1)NC1CCCC1 [Compound 0038] |
| < 100 | < 100 |  |  | COc1c(-c2cnn(C)c2)cnc2ccc(NC(=O)NC3CCCC3)nc12 [Compound 0235] |
| < 100 | < 100 |  |  | Cc1n[nH]c(C)c1-c1cnc2ccc(NC(=O)NC3CCCC3)nc2c1 [Compound 0049] |
| < 100 | < 100 |  |  | O=C(Nc1ccc2ncc(-c3cnn(CCN4CCOCC4)c3)cc2n1)NC1CCCC1 [Compound 0004] |
